Values quoted from earlier work as cited in Sander's compilation of Henry's law constants (doi:10.1007/978-94-007-2275-0).

Experiment: Henry solubility constant Hcp at 298.15 K (mol/(m3 Pa))
Conditions: reference: Warneck and Williams (2012); cited value

| Structure (SMILES) | Henry solubility constant Hcp |
| --- | --- |
| [Ar] [argon] | 1.4e-05 |
| S=C=S [carbon disulfide] | 0.00061 |
| [C-]#[O+] [carbon monoxide] | 9.7e-06 |
| O=C=S [carbon oxide sulfide] | 0.00021 |
| FC(F)(Cl)Cl [dichlorodifluoromethane] | 3e-05 |
| CSC [dimethyl sulfide] | 0.0056 |
| [N-]=[N+]=O [dinitrogen monoxide] | 0.00024 |
| OO [hydrogen peroxide] | 910 |
| COO [methyl hydroperoxide] | 2.9 |
| [O]N=O [nitrogen dioxide] | 9.9e-05 |
| [N]=O [nitrogen monoxide] | 1.9e-05 |
| O=O [oxygen] | 1.2e-05 |
| CC(=O)OO[N+](=O)[O-] [peroxyacetyl nitrate] | 0.029 |
| FS(F)(F)(F)(F)F [sulfur hexafluoride] | 2.4e-06 |
| FC(F)(F)F [tetrafluoromethane] | 2.1e-06 |
